Measurements published in patent publication US20240277829A1, “HIV-1 VACCINATION AND SAMT-247 MICROBICIDE TO PREVENT HIV-1 INFECTION” (priority 2021, published 2024).

What was measured:
[1] = system: NKG2A^+ cells; assay: NKG2A^+ cells, blood and mucosa, PMA (Table 1 summary); type: cell-based; settings: * Zinc dependence
Protocol: Intracellular cytokines of Human blood NK cells using SAMT-247 and PMA stimulation with or without zinc chelator. The levels of NKG2A^+ NK cells were measured in blood of healthy humans. Human PBMCs were thawed and cultured in R10 in the presence or absence of SAMT-247 and/or PMA for 12 hours. Cells were incubated with or without Zinc chelator TPEN (cat. #P4413-100 MG, 5 μM) for 12 h. Subsequently, PBMCs were surface stained with the following: BUV737 anti-CD3 (SP34-2; cat. #741872, 5 μl), Alexa700 anti-CD20 (2H7; cat. #560631, 5 μl), BV786 anti-CD45 (HI30; cat. #563716, 5 μl) from BD Biosciences; APC-H7 anti-CD11b (ICRF44; cat. #47-0118-42, 5 μl) from eBioscience and PE-Cy7 anti-NKG2A (Z199; cat. #B10246, 5 μl) from Beckman coulter for 30 minutes at room temperature. This was followed by permeabilization with FOX3-transcription buffer set (cat. #00-5523-00) from eBioscience according to the manufacture's recommendation and subsequently intracellular staining with the following: BV750 anti-TNF-α (MAB11; cat. #566359, 5 μl), BUV396 anti-IFN-γ (B27; cat. #563563, 5 μl), BV510 anti-GranB (GB11; cat. #563388, 5 μl) from BD Biosciences; and FITC anti-Perforin (pf-344; cat. #3465-7, 5 μl) from MABTECH for 30 minutes at room temperature. Flow cytometry acquisitions were performed on a FACSymphony A5 and examined using FACSDIVA™ software (BD Biosciences).
Frequencies and cytokine levels of macaque rectal mucosal NK cells and T cells following SAMT-247 and PMA stimulation. NK/ILC and T cell frequencies and cytokine levels were measured in macaque rectal mucosa. Freshly collected rectal biopsies were processed to single cells and cultured in R10 in the presence/or absence of SAMT-247 and/or PMA for 12 hours. […]

[2] = system: macaque rectal mucosal NK cells; assay: Frequencies and cytokine levels of macaque rectal mucosal NK/ILCs following SAMT-247 and PMA stimulation; type: cell-based
From the text: Additionally, rectal tissue from 9 macaques was used for an in vitro study. The age-matched macaques from this separate study (P204) included 4 animals vaccinated against HIV and 5 naïve animals, all challenged with SHIV. Rectal tissue was obtained post challenge from 7 infected and 2 uninfected animals for the P204 study analysis. Extra cells were available from that collection and were used here for the in vitro study.
Frequencies and cytokine levels of macaque rectal mucosal NK cells and T cells following SAMT-247 and PMA stimulation. NK/ILC and T cell frequencies and cytokine levels were measured in macaque rectal mucosa. Freshly collected rectal biopsies were processed to single cells and cultured in R10 in the presence/or absence of SAMT-247 and/or PMA for 12 hours. Subsequently, cells were stained for live cells with Live/Dead Blue dye (cat. #L34962, 0.5 μl) from Thermofisher; followed by surface staining with the following: BUV737 anti-CD3 (SP34-2; cat. #741872, 5 μl), BV711 anti-CD4 (L200; cat. #563913, 5 μl), BV650 anti-NKp44 (P44-8; cat. #744302, 5 μl), Alexa700 anti-CD20 (2H7; cat. #560631, 5 μl), BV786 anti-CD45 (D058-1283; cat. #563861, 5 μl) from BD Biosciences; APC-H7 anti-CD11b (ICRF44; cat. #47-0118-42, 5 μl), PE-Cy5 anti-CD95 (ICRF44; cat. #15-0959-42, 5 μl) from eBioscience; BV570 anti-CD8 (RPA-T8; cat. #301038, 5 μl), BV605 anti-CCR6 (G034E3; cat. #353420, 5 μl), APC anti-CXCR3 (G025H7; cat. #353708, 5 μl), from Biolegend and PE-Cy7 anti-NKG2A (Z199; cat. #B10246, 5 μl) from Beckman coulter for 30 minutes at room temperature. This was followed by permeabilization with a FOX3-transcription buffer set (cat. #00-5523-00) from eBioscience according to the manufacture's recommendation and subsequently intracellular staining with the following: BV750 anti-TNF-α (MAB11; cat. #566359, 5 μl), BUV395 anti-IFN-γ (B27; cat. #563563, 5 μl), BV510 anti-GranB (GB11; cat. #563388, 5 μl), BV421 anti-IL-10 (JES3-9D7; cat. #564053, 5 μl) from BD Biosciences; PE-Cy5.5 anti-IL-17 (BL168; cat. #512314, 5 μl) from Biolegend; and FITC anti-Perforin (pf-344; cat. #3465-7, 5 μl) from MABTECH for 30 minutes at room temperature. Flow cytometry acquisitions were performed on a FACSymphony A5 and examined using FACSDiva software (BD Biosciences).

[3] = macaque rectal mucosal NK cells, PMA

Q: With `CC(=O)Sc1ccccc1C(=O)NCCC(N)=O` [SAMT-247] as the compound, how does the Cytokine ([1]; IFN-γ) read?
A: <IFN-γ *

Q: And the Cytokine ([1]; TNF-α)?
A: <TNF-α *

Q: And the Cytokine ([1]; granzyme and perforin)?
A: >Granzyme/Perforin

Q: And the Cytokine ([2]; NKp44^+, Mucosa, PMA)?
A: >IL-17

Q: And the Function ([2]; NKp44^+, Mucosa, PMA)?
A: >Epithelium

Q: And the “IFN-γ and TNF-α production” value [2, 3]?
A: decreased

Q: And the “NKG2A^+ cells expressing granzyme B and perforin” value [2, 3]?
A: increased

Q: What about the “percentage of NKp44^+ cells producing IL-17” value ([2]; mucosal cells from 9 macaques exposed in vitro) of the same compound?
A: augmented

Q: What about the “ability of NKG2A^−NKp44^− cells to produce IFN-γ” value ([2]; mucosal cells in vitro) of the same compound?
A: tended to decrease

Q: What about the “frequency of the NKG2A^−NKp44^− population” value ([2]; mucosal cells in vitro) of the same compound?
A: decreased
